Results from patent US20120083472A1, “PHARMACEUTICAL COMPOSITION FOR PROMOTING THE HEALING OF WOUNDS AND CONTAINING LYSOPHOSPHATIDIC ACID AND AN ADENYLYL CYCLASE INHIBITOR AS ACTIVE INGREDIENTS” (SNU R&DB FOUNDATION, priority 2009, published 2012).
Blank lines part the entries; values can stand above or below the molecule they belong to.

How the values were obtained:
[1] = tested on: young and senescent fibroblasts (HDFs); assay: In vitro wound healing assay (cell migration into acellular area); format: cell-based, human; conditions: for migration of senescent cells / migration of young cells: serum-starved; for migration of senescent cells: LPA 30 μM, ACI 300 μM, 72 hrs (FIGS. 6B, 6D); for migration of young cells: LPA 30 μM or ACI 300 μM, up to 72 hrs (FIGS. 6A, 6C)
Method: Sub-cultured young (A, C) and senescent cells (B, D) were serum-starved for 2 days and treated with ACI or dbcAMP (1 mM) for 2 hr at 37° C. An area was denuded by a yellow tip and the cells were then treated with LPA (30 μM) and incubated at 37° C. Photographs were taken at 6 hrs, 12 hrs, 18 hrs, 24 hrs, 30 hrs, 36 hrs, 42 hrs, 60 hrs, and 72 hrs, and the number of cells migrated into the acellular area was counted and the average values were plotted in A and B. The data at 72 hrs were replotted in a bar graph to show the significant changes induced by treating cells with either LPA or ACI, or both (C and D). The results shown represent the means±standard deviation of a representative experiment. Cell migration from each group (p<0.001) was compared to the control value the migration was read as having a significance.
LPA-induced cell migration was assessed by the ability of the cells to move into an acellular area (Shiraha et al., 2000). Cells were plated on a 10-cm plastic dish and grown to 70-80% confluence in the culture media with 10% FBS. After a 2-day quiescence in serum free media with 0.1% BSA, cells were pretreated with vehicle, ACI (300 μM), or dbcAMP (1 mM) for 2 hrs at 37° C. An area was denuded by a tip and the cells were then incubated at 37° C. without or with LPA (30 μM). Photographs were taken at 6 hrs, 12 hrs, 18 hrs, 24 hrs, 30 hrs, 36 hrs, 42 hrs, 60 hrs, and 72 hrs, and the number of cells migrating to the acellular area was counted.

[2] = tested on: young and senescent fibroblasts, HUVEC, skin keratinocytes; assay: DNA synthesis ([3H]-thymidine incorporation); format: cell-based, human; conditions: for basal and LPA-stimulated DNA synthesis in senescent cells: 1 mM dbcAMP or 300 μM ACI 2 hrs, then 30 μM LPA (FIG. 4A)
Method: Sub-cultured young (PD 25) and senescent (PD 73) cells (A), skin fibroblasts from young and elderly donors (B), HUVEC (C) and skin keratinocytes (D) were serum-starved for 2 days and treated with 1 mM of dibutyryl-cAMP (dbcAMP), or 300 […]μM of ACI (SQ22536) for 2 hrs. Cells were then treated with 30 μM of LPA in the presence of 0.5 μCi/ml of [^3H]-radioactive isotope. The radioactivity incorporated into the DNA was counted and fold increase of radioactive isotope incorporation was calculated and plotted. The results shown represent the means±standard deviation of a representative experiment. Human umbilical vein endothelial cells (HUVEC) were isolated from endothelial cells of umbilical cords as described by Whang et al (Whang et al., 2005). Foreskin human fibroblasts and keratinocytes were isolated from newborn foreskins as described by Boyce and Ham (Boyce and Ham, 1983). Patient consents were obtained from all donors and the use of tissue samples was approved by the ethics committee of the Seoul National University. The obtained and isolated fibroblasts and HUVEC were maintained in DMEM containing 10% fetal bovine serum (FBS) and antibiotics, and keratinotyes were in keratinocyte growth medium (KGM) containing antibiotics. Cells from the early stage of culture were cultured to obtain aged cells, which were used in experiments (population doubling -PD- of less than 25 vs PD 65-70 in fibroblasts, PD less than 5 vs PD 10-12 in case of HUVEC). Senescent cells were characterized by morphological changes, enhanced […]β-galactosidase activity and a reduced rate of proliferation (Yeo et al., 2000). Cells were grown for 2 days to 60-70% sub-confluency in the culture medium after treatment with LPA or ACI, and then serum-starved to quiescence by incubating them with either serum free DMEM containing 0.1% BSA (fibroblasts or HUVEC) or KBM (keratinocytes) for 2 days. […] Radioactivity in the neutralized lysates was counted in a liquid scintillation cocktail. The measured radioactivity as such was compared to that of control to find the synthesis degree of […].

[3] = tested on: cAMP level in young and senescent fibroblasts; assay: Measurement of cyclic AMP (cAMP) by competitive binding assay; format: cell-based, human
Method: Sub-cultured young (PD 20) and senescent (PD 65) fibroblasts were treated with various concentrations of ACI for 1 hr. The level of cAMP in the acid extracts was measured by using a cAMP binding assay. The results shown represent the means±standard deviation of a representative experiment.
(§1) Human umbilical vein endothelial cells (HUVEC) were isolated from endothelial cells of umbilical cords as described by Whang et al (Whang et al., 2005). Foreskin human fibroblasts and keratinocytes were isolated from newborn foreskins as described by Boyce and Ham (Boyce and Ham, 1983). Patient consents were obtained from all donors and the use of tissue samples was approved by the ethics committee of the Seoul National University. The obtained and isolated fibroblasts and HUVEC were maintained in DMEM containing 10% fetal bovine serum (FBS) and antibiotics, and keratinotyes were in keratinocyte growth medium (KGM) containing antibiotics. Cells from the early stage of culture were cultured to obtain aged cells, which were used in experiments (population doubling -PD- of less than 25 vs PD 65-70 in fibroblasts, PD less than 5 vs PD 10-12 in case of HUVEC). Senescent cells were characterized by morphological changes, enhanced […]β-galactosidase activity and a reduced rate of proliferation (Yeo et al., 2000). Cells were grown for 2 days to 60-70% sub-confluency in the culture medium after treatment with LPA or ACI, and then serum-starved to quiescence by incubating them with either serum free DMEM containing 0.1% BSA (fibroblasts or HUVEC) or KBM (keratinocytes) for 2 days.
After removing the medium, 2.5 M of perchloric acid was added into the plate. The obtained acid extract was stored at […] until use, when the extract was neutralized with 4.2 M KOH and the cAMP content was determined by competitive binding with [^3H]-cAMP to the cAMP binding protein, RIα[…] of cAMP-dependent protein kinase (Jang and Juhnn, 2001). After the extraction, cells were lysed with 0.1 N NaOH and protein content was determined using Bradford protein assay reagent. The cAMP content was normalized versus the amount of acid-insoluble protein (expressed as the content of cAMP per protein concentration).

[4] = tested on: young and senescent fibroblasts, HUVEC, skin keratinocytes; assay: Cell growth / proliferation (cell number count); format: cell-based, human; conditions: for cell number in senescent cells of various cell types: senescent fibroblasts, old donor fibroblasts, HUVEC, keratinocytes, degree depends on cell type (FIG. 5)
Method: Sub-cultured young (PD 25, A) and senescent (PD 73, B) fibroblasts were serum-starved for 2 days and treated with LPA, 1 mM of dbcAMP (+dbcAMP), or 300 μM of ACI SQ22536 (+ACI) for 4 days. The number of cells was counted. The results shown represent the means±standard deviation of a representative experiment.
Sub-cultured young (PD 25) and senescent (PD 73) cells (A), fibroblasts from young and elderly donors (B), HUVEC (C) and skin keratinocytes (D) were serum-starved for 2 days and treated with LPA, and then treated with 1 mM of dibutyryl-cAMP, or 300 μM of ACI (SQ22536) for 4 days. The number of cells was counted. The results shown represent the means±standard deviation of a representative experiment.
as §1

[5] = tested on: skin wounds of young and aged Fisher 344 rats; assay: Skin wound healing in young and aged rats (photographs, H & E, PCNA staining); format: in vivo, rat; conditions: for epithelialization (H & E) of aged wounded rats: day 4, compared to control untreated groups; for PCNA staining in aged rats: wound sections, versus very weak staining in control aged rats; for number of PCNA positive cells / wound healing rate (photographs of wounds): young and aged rats; for number of PCNA positive cells: wound sections (FIG. 9B, 9C); for wound healing rate (photographs of wounds): LPA 30 μM, ACI 300 μM, 200 μl topical once per two days, 4th day (FIG. 7)
Method: Rats were anesthetized with intraperitoneal injection of ketamine and xylazine. The back was shaved (A) and four full-thickness circular skin wounds of 1.0 cm diameter were cut (B). A teflon wound chamber was glued into the edge of the skin and then sewn using a […] (C).
Young and old rats were anesthetized and wounded as described in the legend of FIG. 1. 200 μl aliquots of the solutions containing LPA (30 μM), ACI (300 μM), and the mixture of LPA and ACI dissolved in physiological saline were applied onto wound sites using a sterile glass filter in each wound chamber once per two days. After 4 days, the wounds were photographed.
Young and old rats were anesthetized and wounded as described in the legend of FIG. 1. The wounds were treated with LPA (30 μM), ACI (300 μM), or the mixture of LPA and ACI as described in the legend of FIG. 1c. On postoperative days 4, animals were anesthetized and killed as described in “Materials and Methods”. Approximately 5-mm-thick section across the dorsoventral diameter of the wound was cut and fixed and embedded in paraffin. Serial sections were cut and processed for hematoxylin-eosin (H & E) staining. H & E stained epithelial layer was visualized on the top of each section.
Young and aged rats were anesthetized and wounded as described in the legend of FIG. 1. The wounds were treated with LPA (30 μM), ACI (300 μM), or the mixture of LPA and ACI as described in the legend of FIG. 1c. On postoperative days 2, 4, and 7, animals were anesthetized and killed as described in “Materials and Methods”. An about 5-mm-thick section across the dorsoventral diameter of the wound was cut and fixed and embedded in paraffin. Serial sections were cut and processed for immunohistochemistry using PCNA as described in “Materials and Methods”. The presence of PCNA was visualized by using avidin-biotin peroxidase complex method and the control was counterstained with hematoxylin. The photographs from postoperative days 4 are shown in A. The number of PCNA positive cell was counted from each photograph and plotted in B (young rats) and C (aged rats).
Rats aged 6 months and 24 months which were used in experiments were purchased from Samtaco BioKorea (Seoul, Korea) and housed two per cage in a room with controlled temperature and humidity with a 12:12-h light-dark cycle. They were maintained on a standard diet with food and water ad libitum in an animal facility accredited by the Korean Association for Accreditation of Laboratory Animal Care. Animals were divided into treatment groups, each consisting of nine, and used in experiments.
Rats were anesthetized with intraperitoneal injection of ketamine and xylazine (87/13 mg/kg). Skin wounding and its protection was performed as described by Balazs (Balazs et al., 2001). By the dermabrasion technique using diamond bar, four second-degreed partial thickness circular wounds of 1.0 cm. A teflon wound chamber with a 1.2 cm inner diameter centered around the wound was glued into the edge of the skin with Histoacryl and then sewn using a surgical nylon suture (Ethicon 4-0) (FIG. 1C). In order to protect wound site, upon treatment with LPA or ACI, they were sprayed using a sterile filter (GF-C Whatman), followed by treatment. This work was carried out by a single plastic surgeon for consistency and exactness of experiments. 30 μM of LPA, 300 μM of ACI, and the mixture of LPA (30 μM) and ACI (300 μM) are dissolved in physiological saline to be a 200-μl aliquot, respectively. The 200-μl aliquot, corresponding to 30 pmol/mm^2, was applied […] into the wound of the animals anesthetized with inhalation. The contralateral side received 200 μl of saline as a control. […]
Serial sections (4 […]μm thick) were cut and processed for hematoxylin-eosin (H & E) and immunohistological staining. Paraffin sections on the microslides were deparaffinized in xylene and rehydrated sequentially in alcohol. […]

cAMP levels at 300 μM ([3]; 300 μM ACI, both young and senescent cells (FIG. 2)): complete abrogation | cAMP levels ([3]; various concentrations of ACI, 1 hr, young (PD 20) and senescent (PD 65) fibroblasts (FIG. 2)): dose-dependently reduced cAMP levels
Molecule: Nc1ncnc2c1ncn2C1CCCO1 (stereo not shown) [ACI, 9-(tetrahydro-2′-furyl)adenine]
migration of senescent cells [1]: increase in cell migration | migration of young cells [1]: unaltered | basal and LPA-stimulated DNA synthesis in senescent cells [2]: increased | thymidine incorporation, basal and LPA-stimulation conditions ([2]; young and aged fibroblasts, HUVEC and keratinocytes, 300 μM ACI (FIG. 4)): enhanced the thymidine incorporation | concentration of cAMP in aged cells upon treatment with ACI ([3]; aged fibroblasts, ACI): again lowered | proliferation of aged cells compared to treatment with LPA ([4]; aged fibroblasts): more increased | cell number in senescent cells following ACI treatment ([4]; senescent fibroblasts (PD 73), 300 μM ACI, 4 days, unlike young cells (FIG. 3B)): significant increase in the cell number | cell number in senescent cells of various cell types ([4]; 4 days): further enhanced | epithelialization (H & E) of aged wounded rats [5]: higher | PCNA staining in aged rats [5]: increased significantly | number of PCNA positive cells [5]: increased significantly | wound healing rate (photographs of wounds) [5]: faster than the untreated controls

Molecule: CCCC(=O)Nc1ncnc2c1ncn2[C@@H]1O[C@@H]2COP(=O)(O)O[C@H]2[C@H]1OC(=O)CCC [dbcAMP, dibutyryl cAMP]
LPA-induced cell migration ([1]; dbcAMP 1 mM with LPA 30 μM): reduced | basal cell migration ([1]; young and senescent cells, 1 mM dbcAMP): did not significantly affect | basal and LPA-stimulated DNA synthesis in senescent cells [2]: decreased | LPA-induced proliferation ([4]; both young and senescent cells, 1 mM dbcAMP after LPA, 4 days (FIG. 3)): decreased

Molecule: lysophosphatidic acid [LPA]
migration of senescent cells [1]: increased senescent cell migration at 72 hrs significantly | migration of young cells [1]: migration of cells is increased | concentration of cAMP in aged cells ([3]; aged fibroblasts, treatment with LPA): increased | concentration of cAMP in young cells ([3]; young fibroblasts, treatment with LPA): lowered | cell number (proliferation) ([4]; LPA 1-70 μM, 4 days, young and senescent fibroblasts (FIG. 3)): induces proliferation of both young and senescent cells in a dose-dependent manner | cell number in senescent cells of various cell types ([4]; 4 days): further enhanced | epithelialization (H & E) of aged wounded rats [5]: higher | PCNA staining in aged rats [5]: increased significantly | number of PCNA positive cells [5]: increased significantly | wound healing rate (photographs of wounds) [5]: faster than the untreated controls
